Data taken from patent US11376271B1, “Methods of ameliorating the effects of alcoholic liver damage” (FULGENT LIFE INC., priority 2021, dated 2022).

Key:
male C57BL/6J mice [1] = assay: Loss of righting reflex (LORR) test; assay type: in vivo; details: 500 mg/kg intragastric 15 min prior to 8 ml/kg ethanol
Description: Alcohol acts on the central nervous system, causing various behavioral and/or cognitive problems, e.g., loss of righting reflex (LORR). […] LORR is defined as the phenomenon that mice cannot correct themselves three times within 30 seconds after alcohol intake. LORR latency is defined as the time from drinking to occurrence of LORR, and LORR duration is defined as the time from occurrence to recovery of LORR.
Fisher's exact probability test was used to analyze the loss of righting reflex (LORR) in the mice. […] The data representing LORR latency and duration are expressed as mean±SD (n=10); *p<0.05 vs alcohol group.

AML12 cells = assay: NAD+/NADH ratio in AML12 cells; details: 1 mM, 6 h, vs control
[2] = tested on: C2C12, Neuro2a and AML12 cells; assay: Toxicity: total cell number / trypan blue count after 24 h; assay type: cell-based; details: 1 mM
Protocol: The sharp increase of NAD+ concentration indicates a possible toxicity to cells. To assess this toxicity, C2C12, Neuro2a and AML12 cells were treated with 1 mM NADH for 24 hours, and then the total cell numbers were measured. […] The cells were stained with trypan blue and then counted with a hemocytometer. […] The Annexin V/PI staining kit and Caspases3/7/SYTOX dead cell staining kit (Life Technologies) were used and cells were counted with a BD FACSCelesta™ flow cytometer. The quadrants of apoptotic cells, necrotic cells and living cells were identified and quantified according to the manufacturer's instructions.
To examine apoptotic markers, AML12 cells were stained for Annexin V and Caspase 3/7, and cells were counted with a flow cytometer. […] Quadrants with live cells (brown), necrotic cells (gray) and apoptotic cells (blue) were quantified.

hepatocyte AML12 cells = assay: NADH dose-response and time course of NAD+ levels in AML12 cells; assay type: cell-based
Protocol: Also, cells were cultured as follows.
A dose-response curve was also determined for hepatocyte AML12 cells. These cells were treated with rising concentrations of NADH for 3 h. […] (n=3). *, p<0.01; **, p<0.001 vs Control.
Time course studies for NADH action were also carried out. AML12 cells were incubated with NADH for various incubation times (0-12 hr) and then harvested, and the NAD+ levels were assessed. […] (n=3). *, p<0.01; **, p<0.001 vs Control.

male C57BL/6J mice [3] = assay: Liver NAD+/NADH ratio after ethanol administration; assay type: in vivo; details: 500 mg/kg intragastric 15 min before 8 ml/kg ethanol (40% w/v)
Protocol: The ratio of NAD^+/NADH in the liver was then measured at different times after ethanol administration. The NAD^+/NADH ratios were detected using a NAD+/NADH Quantification Colorimetric Kit (ABIN411692) in compliance with the manufacturer's instructions. Fresh tissue lysate was prepared from snap cryo-frozen liver samples stored in […], and 20 mg liver was homogenized with NAD^+/NADH extraction buffer (400 μL). In order to quickly remove enzymes that may consume NADH, the samples were filtered through a 10 kD molecular weight cut-off filter before detection. […] Concentrations were calculated using an NADH standard curve.

male C57BL/6J mice [4] = assay: Blood ethanol and acetaldehyde levels after ethanol administration
male C57BL/6J mice [5] = assay: Plasma AST and ALT in acute alcohol-induced hepatotoxicity; assay type: in vivo
Protocol: Liver marker enzymes in plasma, such as aspartate transaminase (AST) and alanine aminotransferase (ALT), are known as sensitive biochemical markers of early liver damage. […] Six hours after treatment with alcohol, blood samples were taken to detect biochemical indexes. […] The control group was given the same amount of normal saline in place of the ethanol. […] The plasma levels of AST and ALT were determined by collecting blood samples in an anti-coagulant test tube and centrifuging at 1500 rpm for 10 minutes to attain plasma. The plasma AST and ALT activity was determined with a commercial kit (from Sigma-Aldrich) based on the manufacturer's instructions.

[6] = tested on: mammalian cell lines (insulinogenic (MING), neuronlike (LN229), muscle-like (C2C12), and normal hepatocyte (AML12) cells); assay: NAD+ levels in mammalian cell lines treated with NADH, NRH or NMN; details: 1 mM, 3 h; all cell lines
Protocol: Also, cells were cultured as follows. LN229, Neuro2a, and C2C12 cells were grown in Dulbecco's modified Eagle's medium (DMEM) supplemented with 10% fetal bovine serum (FBS), 100 units/ml penicillin, and 100 μg/ml streptomycin. […] AML12 cells were cultured in a 1:1 mixture of DMEM high glucose/Ham's F-12 with I-glutamine and supplemented with 10% FCS, 15 mM HEPES, 40 ng/ml dexamethasone, 0.005 mg/ml human recombinant insulin, 5 ng/ml sodium selenite and 0.005 mg/ml transferrin (Sigma Aldrich).
The cells were seeded in 6-well plates until they reached approximately 80% confluence. […] The number of cells was counted by hemocytometer and trypan blue. The harvested cells were then pelleted at 3000×g for 3 min. After eliminating the residual medium, the cells were lysed with 7% perchloric acid to preserve NAD+, and then neutralized with NaOH (2 M) and K2HPO4 (500 mM).

male C57BL/6J mice [7] = assay: Tissue NAD+ content after intraperitoneal injection; assay type: in vivo; details: 4 hours
Protocol: In the below in vivo assays, C57BL/6J male mice (The Jackson Laboratory) (40 days of age) were used. They were kept under standard laboratory conditions with a temperature of 22±1° C., dark/light cycles of 12/12 h, and relative humidity of 55±5%. All animals had free access to food and water, except for indicated fasting periods (and where not indicated for fasting periods of 2 hours before administration).
[…] Specifically, ten 8-week-old male C57BL/6J mice (The Jackson Laboratory) were kept in polycarbonate cages under a 12-h light/dark cycle with free access to food and water. […] Four hours later, the blood samples were collected by cardiac puncture and the mice were executed. Liver, brain, muscle, and adipose tissues were collected, instantly frozen in liquid nitrogen, and then stored at −80° C. until performance of the NAD+ analyses. […] Four hours later, the mice were killed and tissue samples were collected. All animal studies were performed according to the Guidelines for the Care and Use of Experimental Animals. For this NAD+ assay, about 100 mg of frozen tissue was crushed in liquid nitrogen and ultrasonically homogenized in 7% perchloric acid, and then the solution was neutralized and subjected to the NAD+ determination described here.
Data are indicated as mean±SD.

[8] = 500 mg/kg intragastric 15 min before 8 ml/kg ethanol (40% w/v)
[9] = 500 mg/kg intragastric 30 min prior to 8 ml/kg ethanol (40% w/v), blood 6 h after alcohol
[10] = 40% ethanol every 24 h for 3 days, then 500 mg/kg every day for three days

For `NC(=O)C1=CN([C@@H]2O[C@H](COP(=O)(O)OP(=O)(O)OC[C@H]3O[C@@H](n4cnc5c(N)ncnc54)C(O)C3O)C(O)C2O)C=CC1` (some centres unmarked) [NADH, nicotinamide adenine dinucleotide (NAD)+hydrogen (H)], the “LORR duration relative to the model group” value (male C57BL/6J mice [1]) was “one third”, the “LORR duration vs model group” value (male C57BL/6J mice [1]) was “decrease” and the “LORR latency vs model group” value (male C57BL/6J mice [1]) was “prolonged”. The “average LORR latency relative to the model group” value (male C57BL/6J mice [1]) was 4 times, the “share of mice that had a righting reflex after drinking alcohol” value (male C57BL/6J mice [1]) was “less than half” and the “LORR rate vs model group” value (male C57BL/6J mice [1]; model group 100%) was “decrease”. For the same compound, the “average LORR latency” value (male C57BL/6J mice [1]; model group 14.76 minutes) was 60.24 min, the LORR duration (male C57BL/6J mice [1]; model group about 798.68 minutes) was 265.00 min and the “NAD+/NADH ratio” value (AML12 cells) was “significantly increase”. For the same compound, the “Trypan blue positive cells” value [2] was “less than 5%”, the “loss of cultured cells (total cell number)” value [2] was “no obvious loss” and the “concentration of NAD+ relative to the control group” value (hepatocyte AML12 cells; 50 μM NADH, 3 h) was “approximately 4 times”. For the same compound, the “concentration of NAD+ relative to the untreated control group (saturation)” value (hepatocyte AML12 cells; 500 μM NADH, 3 h) was 10 times, the “time after which full NAD+ increasing effects were present” value (hepatocyte AML12 cells; 1 mM NADH) was 3 h and the “time at which NAD+ concentration-increasing effects appeared” value (hepatocyte AML12 cells; 1 mM NADH) was 0.5 h. The “NAD+ after 12 hours of treatment” value (hepatocyte AML12 cells; 1 mM NADH, 12 h) was “remained at a high concentration”, the “ethanol-induced decrease of liver NAD+/NADH redox ratio” value (male C57BL/6J mice [3]) was “significantly inhibited this decrease” and the “acetaldehyde in the blood two hours after alcohol administration” value (male C57BL/6J mice [4]; [8]) was “significantly reduced”. The “blood acetaldehyde levels within two hours after ethanol administration” value (male C57BL/6J mice [4]; [8]) was “significantly increased”, the “ethanol in the blood” value (male C57BL/6J mice [4]; 500 mg/kg oral 15 min before 8 ml/kg ethanol (40% w/v), 30 minutes after ethanol) was “significantly reduced” and the “plasma ALT level, pre-treatment” value (male C57BL/6J mice [5]; [9]) was “significantly reduce”. For the same compound, the “plasma AST level, pre-treatment” value (male C57BL/6J mice [5]; [9]) was “significantly reduce”, the “plasma ALT level, treatment after alcohol exposure” value (male C57BL/6J mice [5]; [10]) was “significantly reduce” and the “plasma AST level, treatment after alcohol exposure” value (male C57BL/6J mice [5]; [10]) was “significantly reduce”. The “induced NAD+ levels compared with NMN” value [6] was “much higher than those induced by NMN”, the “increase of the concentration of NAD+ in the liver” value (male C57BL/6J mice [7]; 250 mg/kg intraperitoneal) was 680% and the “NAD+-promoting effect in skeletal muscle” value (male C57BL/6J mice [7]; 1000 mg/kg intraperitoneal) was “lowest”. For the same compound, the “content of NAD+ in blood, brain and fat” value (male C57BL/6J mice [7]; 1000 mg/kg intraperitoneal) was “increased several times” and the “increase of NAD+ content in liver” value (male C57BL/6J mice [7]; 1000 mg/kg intraperitoneal) was “more than 7 times”.
